This note sets out measurements from BindingDB's records for doi:10.1016/j.bmcl.2005.09.022 (Bristol-Myers Squibb Pharmaceutical Research Institute, 2005).

As usually defined, the IC50 is the concentration at which inhibition is half-maximal.

This assay addresses C-C chemokine receptor type 4 (Mus musculus) (UniProt P51680). Kind of assay: Inhibition of chemotaxis of murine CCR4 transfected L1.2 cells.

C-C chemokine receptor type 4 (Mus musculus), sequence (P51680 whole entry, looked up): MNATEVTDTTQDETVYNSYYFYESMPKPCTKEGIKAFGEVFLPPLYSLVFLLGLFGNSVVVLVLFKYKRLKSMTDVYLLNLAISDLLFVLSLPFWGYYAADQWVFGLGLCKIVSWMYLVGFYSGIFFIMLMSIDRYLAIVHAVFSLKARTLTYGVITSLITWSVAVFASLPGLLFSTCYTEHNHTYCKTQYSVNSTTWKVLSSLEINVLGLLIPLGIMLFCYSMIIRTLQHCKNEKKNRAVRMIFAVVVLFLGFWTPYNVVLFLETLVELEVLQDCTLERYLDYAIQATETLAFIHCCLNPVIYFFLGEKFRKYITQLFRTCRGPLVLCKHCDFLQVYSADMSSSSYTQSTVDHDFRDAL

In turn, `O=C([C@H]1CCCCN1)N1CCN(c2nccc(NCc3ccc(Cl)cc3Cl)n2)CC1` [(R)-(4-(4-(2,4-dichlorobenzylamino)pyrimidin-2-yl)piperazin-1-yl)(piperidin-2-yl)methanone] showed an IC50 of 380 nM.
